Measured values as given in patent US11053204B2, “Pyrimidinyloxy benzene derivatives as herbicides” (FMC Corporation, priority 2015, dated 2021).

Key:
Format in all cases: in vivo
[1] = system: giant foxtail (Setaria faberii); test: Test A preemergence, visual injury rating; settings: 0 to 100 scale (0 no effect, 100 complete control)
Source text: (§1) Seeds of plant species selected from barnyardgrass (Echinochloa crus-galli), kochia (Kochia scoparia), ragweed (common ragweed, Ambrosia elatior), Italian ryegrass (Lolium multiflorum), large (Lg) crabgrass (Digitaria sanguinalis), giant foxtail (Setaria faberii), morningglory (Ipomoea spp.), pigweed (Amaranthus retroflexus), velvetleaf (Abutilon theophrasti), wheat (Triticum aestivum), and corn (Zea mays) were planted into a blend of loam soil and sand and treated preemergence with a directed soil spray using test chemicals formulated in a non-phytotoxic solvent mixture which included a surfactant.
(§2) At the same time, plants selected from these crop and weed species and also blackgrass (Alopecurus myosuroides), and galium (catchweed bedstraw, Galium aparine) were planted in pots containing the same blend of loam soil and sand and treated with postemergence applications of test chemicals formulated in the same manner. Plants ranged in height from 2 to 10 cm and were in the one- to two-leaf stage for the postemergence treatment. Treated plants and untreated controls were maintained in a greenhouse for approximately 10 days, after which time all treated plants were compared to untreated controls and visually evaluated for injury. Plant response ratings, summarized in Table A, are based on a 0 to 100 scale where 0 is no effect and 100 is complete control. A dash (-) response means no test result.

[2] = system: pigweed (Amaranthus retroflexus); test: Test A preemergence, visual injury rating; settings: 0 to 100 scale (0 no effect, 100 complete control)
Source text: as §1, §2

kochia (Kochia scoparia) [3] = test: Test A preemergence, visual injury rating; settings: 0 to 100 scale (0 no effect, 100 complete control)
Source text: as §1, §2

[4] = system: ragweed (common ragweed, Ambrosia elatior); test: Test A preemergence, visual injury rating; settings: 0 to 100 scale (0 no effect, 100 complete control)
Source text: as §1, §2

[5] = system: barnyardgrass (Echinochloa crus-galli); test: Test A preemergence, visual injury rating; settings: 0 to 100 scale (0 no effect, 100 complete control)
Source text: as §1, §2

[6] = system: Italian ryegrass (Lolium multiflorum); test: Test A preemergence, visual injury rating; settings: 0 to 100 scale (0 no effect, 100 complete control)
Source text: as §1, §2

[7] = system: giant foxtail (Setaria faberii); test: Test A postemergence, visual injury rating; settings: 0 is no effect, 100 is complete control
Source text: as §1, §2

[8] = system: galium (catchweed bedstraw, Galium aparine); test: Test A postemergence, visual injury rating; settings: 0 is no effect, 100 is complete control
Source text: as §1, §2

[9] = system: pigweed (Amaranthus retroflexus); test: Test A postemergence, visual injury rating; settings: 0 is no effect, 100 is complete control
Source text: as §1, §2

[10] = system: blackgrass (Alopecurus myosuroides); test: Test A postemergence, visual injury rating; settings: 0 is no effect, 100 is complete control
Source text: as §1, §2

kochia (Kochia scoparia) [11] = test: Test A postemergence, visual injury rating; settings: 0 is no effect, 100 is complete control
Source text: as §1, §2

[12] = system: ragweed (common ragweed, Ambrosia elatior); test: Test A postemergence, visual injury rating; settings: 0 is no effect, 100 is complete control
Source text: as §1, §2

[13] = system: barnyardgrass (Echinochloa crus-galli); test: Test A postemergence, visual injury rating; settings: 0 is no effect, 100 is complete control
Source text: as §1, §2

[14] = system: Italian ryegrass (Lolium multiflorum); test: Test A postemergence, visual injury rating; settings: 0 is no effect, 100 is complete control
Source text: as §1, §2

[15] = system: wheat (Triticum aestivum); test: Test A postemergence, visual injury rating; settings: 0 is no effect, 100 is complete control
Source text: as §1, §2

corn (Zea mays) = test: Test A postemergence, visual injury rating; settings: 0 is no effect, 100 is complete control
Source text: as §1, §2

Compound	Foxtail, Giant plant response rating ([1]; 500 g ai/ha)	Pigweed plant response rating ([2]; 500 g ai/ha)	Kochia plant response rating (kochia (Kochia scoparia) [3]; 500 g ai/ha)	Ragweed plant response rating ([4]; 500 g ai/ha)	Barnyardgrass plant response rating ([5]; 500 g ai/ha)	Ryegrass, Italian plant response rating ([6]; 500 g ai/ha)	Foxtail, Giant plant response rating (0 to 100 scale) ([7]; 500 g ai/ha)	Galium plant response rating (0 to 100 scale) ([8]; 500 g ai/ha)	Pigweed plant response rating (0 to 100 scale) ([9]; 500 g ai/ha)	Blackgrass plant response rating (0 to 100 scale) ([10]; 500 g ai/ha)	Kochia plant response rating (0 to 100 scale) (kochia (Kochia scoparia) [11]; 500 g ai/ha)	Ragweed plant response rating (0 to 100 scale) ([12]; 500 g ai/ha)	Barnyardgrass plant response rating (0 to 100 scale) ([13]; 500 g ai/ha)	Ryegrass, Italian plant response rating (0 to 100 scale) ([14]; 500 g ai/ha)	Wheat plant response rating (0 to 100 scale) ([15]; 500 g ai/ha)	Corn plant response rating (0 to 100 scale) (corn (Zea mays); 500 g ai/ha)	Foxtail, Giant plant response rating ([1]; 125 g ai/ha)	Pigweed plant response rating ([2]; 125 g ai/ha)	Kochia plant response rating (kochia (Kochia scoparia) [3]; 125 g ai/ha)	Ragweed plant response rating ([4]; 125 g ai/ha)	other results
CC(C)(C)OC(=O)c1c(Br)cccc1Oc1ncc(Cl)cn1 [Compound 14]	100	100	70	10	60	20	60	100	100	70	70	0	40	70	40	10					
O=C(OCCC(F)(F)F)c1ccccc1Oc1ncc(Cl)cn1 [Compound 17]	0	10	0	0	0	0	0	0	40	0	0	0	0	0	0	20	0	0	0	0	Barnyardgrass plant response rating ([5]; 125 g ai/ha): 0; Ryegrass, Italian plant response rating ([6]; 125 g ai/ha): 0; Foxtail, Giant plant response rating (0 to 100 scale) ([7]; 125 g ai/ha): 0; Galium plant response rating (0 to 100 scale) ([8]; 125 g ai/ha): 0; Pigweed plant response rating (0 to 100 scale) ([9]; 125 g ai/ha): 20; Blackgrass plant response rating (0 to 100 scale) ([10]; 125 g ai/ha): 0; Kochia plant response rating (0 to 100 scale) (kochia (Kochia scoparia) [11]; 125 g ai/ha): 0; Ragweed plant response rating (0 to 100 scale) ([12]; 125 g ai/ha): 0; Barnyardgrass plant response rating (0 to 100 scale) ([13]; 125 g ai/ha): 0; Ryegrass, Italian plant response rating (0 to 100 scale) ([14]; 125 g ai/ha): 0; Wheat plant response rating (0 to 100 scale) ([15]; 125 g ai/ha): 0; Corn plant response rating (0 to 100 scale) (corn (Zea mays); 125 g ai/ha): 0
N#Cc1cnc(Oc2cccc(Br)c2C(=O)OCC(F)(F)F)nc1 [Compound 31]	0	0	0	0	0	0	0	0	0	0	0	0	0	0	0	0	0	0	0	0	Barnyardgrass plant response rating ([5]; 125 g ai/ha): 0; Ryegrass, Italian plant response rating ([6]; 125 g ai/ha): 0; Foxtail, Giant plant response rating (0 to 100 scale) ([7]; 125 g ai/ha): 0; Galium plant response rating (0 to 100 scale) ([8]; 125 g ai/ha): 0; Pigweed plant response rating (0 to 100 scale) ([9]; 125 g ai/ha): 0; Blackgrass plant response rating (0 to 100 scale) ([10]; 125 g ai/ha): 0; Kochia plant response rating (0 to 100 scale) (kochia (Kochia scoparia) [11]; 125 g ai/ha): 0; Ragweed plant response rating (0 to 100 scale) ([12]; 125 g ai/ha): 0; Barnyardgrass plant response rating (0 to 100 scale) ([13]; 125 g ai/ha): 0; Ryegrass, Italian plant response rating (0 to 100 scale) ([14]; 125 g ai/ha): 0; Wheat plant response rating (0 to 100 scale) ([15]; 125 g ai/ha): 0; Corn plant response rating (0 to 100 scale) (corn (Zea mays); 125 g ai/ha): 0
N#Cc1cccc(Oc2ncc(Cl)cn2)c1C(=O)OCC(F)(F)F [Compound 32]	0	30	0	0	0	0	0	0	30	0	0	0	0	0	0	0	0	30	0	0	Barnyardgrass plant response rating ([5]; 125 g ai/ha): 0; Ryegrass, Italian plant response rating ([6]; 125 g ai/ha): 0; Foxtail, Giant plant response rating (0 to 100 scale) ([7]; 125 g ai/ha): 0; Galium plant response rating (0 to 100 scale) ([8]; 125 g ai/ha): 0; Pigweed plant response rating (0 to 100 scale) ([9]; 125 g ai/ha): 20; Blackgrass plant response rating (0 to 100 scale) ([10]; 125 g ai/ha): 0; Kochia plant response rating (0 to 100 scale) (kochia (Kochia scoparia) [11]; 125 g ai/ha): 0; Ragweed plant response rating (0 to 100 scale) ([12]; 125 g ai/ha): 0; Barnyardgrass plant response rating (0 to 100 scale) ([13]; 125 g ai/ha): 0; Ryegrass, Italian plant response rating (0 to 100 scale) ([14]; 125 g ai/ha): 0; Wheat plant response rating (0 to 100 scale) ([15]; 125 g ai/ha): 0; Corn plant response rating (0 to 100 scale) (corn (Zea mays); 125 g ai/ha): 0
O=C(OCC(F)(F)F)c1c(Br)cccc1Oc1ncc(Br)cn1 [Compound 34]	100	100	40	0	90	0	80	100	100	70	90	0	20	0	0	30	70	40	20	0	Barnyardgrass plant response rating ([5]; 125 g ai/ha): 0; Ryegrass, Italian plant response rating ([6]; 125 g ai/ha): 0; Foxtail, Giant plant response rating (0 to 100 scale) ([7]; 125 g ai/ha): 20; Galium plant response rating (0 to 100 scale) ([8]; 125 g ai/ha): 50; Pigweed plant response rating (0 to 100 scale) ([9]; 125 g ai/ha): 100; Blackgrass plant response rating (0 to 100 scale) ([10]; 125 g ai/ha): 10; Kochia plant response rating (0 to 100 scale) (kochia (Kochia scoparia) [11]; 125 g ai/ha): 60; Ragweed plant response rating (0 to 100 scale) ([12]; 125 g ai/ha): 0; Barnyardgrass plant response rating (0 to 100 scale) ([13]; 125 g ai/ha): 0; Ryegrass, Italian plant response rating (0 to 100 scale) ([14]; 125 g ai/ha): 0; Wheat plant response rating (0 to 100 scale) ([15]; 125 g ai/ha): 0; Corn plant response rating (0 to 100 scale) (corn (Zea mays); 125 g ai/ha): 30
N#CCOC(=O)c1c(C#N)cccc1Oc1ncc(Cl)cn1 [Compound 39]	0	0	0	0	0	0	0	0	0	0	0	0	0	0	0	0	0	0	0	0	Barnyardgrass plant response rating ([5]; 125 g ai/ha): 0; Ryegrass, Italian plant response rating ([6]; 125 g ai/ha): 0; Foxtail, Giant plant response rating (0 to 100 scale) ([7]; 125 g ai/ha): 0; Galium plant response rating (0 to 100 scale) ([8]; 125 g ai/ha): 0; Pigweed plant response rating (0 to 100 scale) ([9]; 125 g ai/ha): 0; Blackgrass plant response rating (0 to 100 scale) ([10]; 125 g ai/ha): 0; Kochia plant response rating (0 to 100 scale) (kochia (Kochia scoparia) [11]; 125 g ai/ha): 0; Ragweed plant response rating (0 to 100 scale) ([12]; 125 g ai/ha): 0; Barnyardgrass plant response rating (0 to 100 scale) ([13]; 125 g ai/ha): 0; Ryegrass, Italian plant response rating (0 to 100 scale) ([14]; 125 g ai/ha): 0; Wheat plant response rating (0 to 100 scale) ([15]; 125 g ai/ha): 0; Corn plant response rating (0 to 100 scale) (corn (Zea mays); 125 g ai/ha): 0
